Some test systems named below: PC-3; OVCAR-4; HOP-62; K562; LOX IMVI; A498; SNB-75; SW-620; TK-10; RPMI-8226; HCC 2998; NCI-H522; BT-549; T47D; NCI-H23; U-251; A549; NCI/ADR-RES; SR.
Common to all, as to assay: inhibition of tumour cell growth, NCI panel, 48 h

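96-well plates; 48 h exposure; 5 concentrations. Endpoints by linear interpolation between flanking doses. Not reached: highest tested concentration assigned. GI50 = concentration required for 50% inhibition of growth.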 Calls of active or inactive are those of the source. No stated cut-off is given here; in the data, active = GI50 up to about 1.1 µM and inactive = higher.

In the case of `O=C(O)CCn1cnc2c(S)ncnc21`, the GI50 with PC-3, in the test with OVCAR-4, in the test on HOP-62, in the test with K562, in the test on LOX IMVI and in the test on A498 was > 100 µM (inactive) each time. Moreover, the GI50 with SNB-75, in the test with SW-620, with TK-10, in the test with RPMI-8226, with HCC 2998 and with NCI-H522 was > 100 µM (inactive) each time. Also, the GI50 with BT-549, in the test on T47D, with NCI-H23, with U-251, with A549 and in the test with NCI/ADR-RES was > 100 µM (inactive) each time. The GI50 in the test with SR was > 100 µM (inactive).
On to `Cc1ccc(S(=O)(=O)N/N=C/C(=C/c2ccc(Cl)cc2)CC(/C=N/NS(=O)(=O)c2ccc(C)cc2)=C\c2ccc(Cl)cc2)cc1`, for which the GI50 in the test on PC-3 is 4.02 µM (inactive); with OVCAR-4, 5.42 µM (inactive); with HOP-62, 19.5 µM (inactive); in the test with K562 it was 2.86 µM (inactive); in the test with LOX IMVI, 2.1 µM (inactive); with A498, 4.94 µM (inactive). For the same molecule, the GI50 in the test on SNB-75 is 3.96 µM (inactive); with SW-620, 4.47 µM (inactive); in the test on TK-10 it was 17.9 µM (inactive); with RPMI-8226 it was 2.64 µM (inactive); in the test with HCC 2998 it was 3.21 µM (inactive); with NCI-H522 it was 4.03 µM (inactive). For the same molecule, the GI50 was 6.15 µM (inactive) in the test with BT-549; 4.78 µM (inactive) with T47D; 6.93 µM (inactive) in the test with NCI-H23; 4.78 µM (inactive) with U-251; 17.1 µM (inactive) in the test on A549; 7.36 µM (inactive) in the test on NCI/ADR-RES. For the same molecule, the GI50 with SR was 2.61 µM (inactive).
As to `Cc1nnc(N)nc1C/C=C/C(Sc1ccc(Cl)cc1)c1ccccc1` (stereo not given), the GI50 was 3.01 µM (inactive) in the test with PC-3; 4.94 µM (inactive) in the test with OVCAR-4; 5.28 µM (inactive) in the test with HOP-62; 3.44 µM (inactive) in the test with K562; 2.26 µM (inactive) with LOX IMVI; 3.73 µM (inactive) with A498. Besides, the GI50 was 4.45 µM (inactive) in the test with SNB-75; 4.2 µM (inactive) in the test with SW-620; 7.14 µM (inactive) in the test on TK-10; 1.43 µM (inactive) in the test with RPMI-8226; 9.38 µM (inactive) in the test on HCC 2998; 1.81 µM (inactive) in the test with NCI-H522. In addition, the GI50 was 2.13 µM (inactive) with BT-549; 11.2 µM (inactive) in the test with T47D; 3.17 µM (inactive) with NCI-H23; 2.91 µM (inactive) in the test with U-251; 2.82 µM (inactive) in the test with A549; 4.69 µM (inactive) with NCI/ADR-RES. Besides, in the test with SR, the GI50 was 3.35 µM (inactive).
In the case of `O=[N+]([O-])c1ccc(C(O)(C#CCN2CCCC2)c2ccccc2)cc1` (stereo not given), the GI50 in the test on PC-3 is 30.4 µM (inactive); with OVCAR-4, 31.5 µM (inactive); in the test on HOP-62, 92.5 µM (inactive); with K562, 19.7 µM (inactive); in the test with LOX IMVI it was 16.2 µM (inactive); with A498, 23.3 µM (inactive). Also, the GI50 is 30.1 µM (inactive) with SNB-75; 98.9 µM (inactive) in the test on SW-620; 52.1 µM (inactive) in the test on TK-10; 26.7 µM (inactive) in the test with RPMI-8226; 16.2 µM (inactive) with HCC 2998; 22.4 µM (inactive) in the test on NCI-H522. In addition, the GI50 in the test on BT-549 was 77.4 µM (inactive); with T47D, 28.5 µM (inactive); in the test on NCI-H23, 96.8 µM (inactive); in the test with U-251 it was 38.9 µM (inactive); with A549, 81.5 µM (inactive); with NCI/ADR-RES, 69.5 µM (inactive). In the test on SR, the GI50 was 23.7 µM (inactive).
As for `CC(=O)O[C@H]1[C@@H](N2CCN(C)CC2)C[C@H]2[C@@H]3CC=C4C[C@@H](N5CCCC5)CC[C@]4(C)[C@H]3CC[C@@]21C`, the GI50 was 40.9 µM (inactive) in the test with PC-3; > 100 µM (inactive) in the test on OVCAR-4; 46.5 µM (inactive) with HOP-62; 11.2 µM (inactive) in the test on K562; 17.4 µM (inactive) with LOX IMVI; > 100 µM (inactive) in the test with A498. The GI50 is > 100 µM (inactive) with SNB-75; 44.9 µM (inactive) with SW-620; > 100 µM (inactive) with TK-10; 19.2 µM (inactive) in the test with RPMI-8226; 17.2 µM (inactive) in the test with HCC 2998; 23.4 µM (inactive) in the test with NCI-H522. The GI50 with BT-549 is > 100 µM (inactive); in the test on T47D it was > 100 µM (inactive); in the test with NCI-H23, > 100 µM (inactive); with U-251, 50 µM (inactive); in the test with A549, 37.7 µM (inactive); in the test with NCI/ADR-RES, 98.4 µM (inactive). In addition, the GI50 in the test with SR was < 0.01 µM (active).
Regarding `CC(CC(=O)O)(CC(=O)O)C(=O)O`, the GI50 in the test with PC-3, in the test on OVCAR-4, in the test on HOP-62, in the test on K562, in the test with LOX IMVI and in the test on A498 was > 100 µM (inactive) in each case. Further, the GI50 with SNB-75, in the test with SW-620, in the test with TK-10, with RPMI-8226, in the test with HCC 2998 and with NCI-H522 was > 100 µM (inactive) throughout. Besides, the GI50 in the test on BT-549, in the test with T47D, in the test on NCI-H23, in the test with U-251, in the test with A549 and with NCI/ADR-RES was > 100 µM (inactive) each time. Further, in the test on SR, the GI50 was > 100 µM (inactive).
As to `N#Cc1c(NC(=O)C(F)(F)F)sc2c3c(=O)c4ccccc4c(=O)c=3oc3ccccc3c12`, the GI50 in the test with PC-3 is 8.93 µM (inactive); in the test with OVCAR-4, 14.7 µM (inactive); in the test with HOP-62 it was 20.5 µM (inactive); in the test on K562, 19.8 µM (inactive); in the test on LOX IMVI it was 13 µM (inactive); in the test on A498, 33.3 µM (inactive). In addition, the GI50 with SNB-75 is 16.8 µM (inactive); in the test on SW-620 it was 25.1 µM (inactive); in the test on TK-10, 33 µM (inactive); in the test on RPMI-8226 it was 12.7 µM (inactive); in the test with HCC 2998, 13.9 µM (inactive); in the test with NCI-H522 it was 7.89 µM (inactive). In addition, the GI50 in the test on BT-549 is 19.6 µM (inactive); with T47D, 21.4 µM (inactive); with NCI-H23, 9.84 µM (inactive); in the test on U-251, 14.7 µM (inactive); with A549, 19 µM (inactive); in the test with NCI/ADR-RES it was 24.8 µM (inactive). In addition, the GI50 in the test on SR was 3.28 µM (inactive).
`COC(=O)C(C(=O)C(=O)Nc1c(C)cccc1C(C)(C)C)c1nc2ccc(Cl)cc2nc1O` (stereo not given): the GI50 in the test with PC-3, with OVCAR-4, in the test on HOP-62, with K562, in the test with LOX IMVI and in the test on A498 was > 100 µM (inactive) each time. For the same molecule, the GI50 with SNB-75 was > 100 µM (inactive); in the test on SW-620 it was > 100 µM (inactive); with TK-10, > 100 µM (inactive); in the test with RPMI-8226, > 100 µM (inactive); with HCC 2998, > 100 µM (inactive); with NCI-H522 it was 94.2 µM (inactive). The GI50 with BT-549, in the test on T47D, in the test on NCI-H23, with U-251, in the test with A549 and in the test on NCI/ADR-RES was > 100 µM (inactive) each time. Besides, the GI50 with SR is > 100 µM (inactive).
On to `Cc1cc(S(=O)(=O)Nc2nc(N)nc(N(C)C)n2)c(SCC(=O)O)cc1Cl`, for which the GI50 with PC-3, in the test on OVCAR-4, with HOP-62, in the test on K562, in the test on LOX IMVI and in the test on A498 was > 10 µM (inactive) in each case. Besides, the GI50 in the test on SNB-75, in the test with SW-620, in the test on TK-10, with RPMI-8226, with HCC 2998 and in the test with NCI-H522 was > 10 µM (inactive) in each case. Moreover, the GI50 in the test with BT-549, in the test on T47D, in the test on NCI-H23, in the test on U-251, in the test with A549 and in the test on NCI/ADR-RES was > 10 µM (inactive) each time. Besides, in the test with SR, the GI50 is > 10 µM (inactive).
As to `COc1ccc(NC(=S)N/N=C/c2cccc(C)n2)cc1`, the GI50 with PC-3 is 4.58 µM (inactive); with OVCAR-4 it was > 24.1 µM (inactive); in the test with HOP-62, 4.32 µM (inactive); with K562 it was 1.62 µM (inactive); with LOX IMVI, 3.65 µM (inactive); in the test on A498, 18.8 µM (inactive). The GI50 with SNB-75 is 4.93 µM (inactive); in the test on SW-620 it was 2.86 µM (inactive); with TK-10, 8.13 µM (inactive); in the test on RPMI-8226 it was 3.68 µM (inactive); in the test on HCC 2998 it was 8.41 µM (inactive); in the test with NCI-H522 it was 0.203 µM (active). Besides, the GI50 is 10.7 µM (inactive) with BT-549; 3.62 µM (inactive) in the test on T47D; 6.05 µM (inactive) in the test on NCI-H23; 4.09 µM (inactive) in the test on U-251; 5.22 µM (inactive) in the test on A549; 2.78 µM (inactive) with NCI/ADR-RES. Also, the GI50 in the test on SR is 3.42 µM (inactive).

Source of the values: ChEMBL document CHEMBL1201862, “PubChem BioAssay data set” (2004).
